Where only a bound is given, the exact number is not on record here.

The target in one assay is T1, Human Calpain 2/NS1 (Homo sapiens, UniProt P17655).
T1 sequence (P17655 1-700): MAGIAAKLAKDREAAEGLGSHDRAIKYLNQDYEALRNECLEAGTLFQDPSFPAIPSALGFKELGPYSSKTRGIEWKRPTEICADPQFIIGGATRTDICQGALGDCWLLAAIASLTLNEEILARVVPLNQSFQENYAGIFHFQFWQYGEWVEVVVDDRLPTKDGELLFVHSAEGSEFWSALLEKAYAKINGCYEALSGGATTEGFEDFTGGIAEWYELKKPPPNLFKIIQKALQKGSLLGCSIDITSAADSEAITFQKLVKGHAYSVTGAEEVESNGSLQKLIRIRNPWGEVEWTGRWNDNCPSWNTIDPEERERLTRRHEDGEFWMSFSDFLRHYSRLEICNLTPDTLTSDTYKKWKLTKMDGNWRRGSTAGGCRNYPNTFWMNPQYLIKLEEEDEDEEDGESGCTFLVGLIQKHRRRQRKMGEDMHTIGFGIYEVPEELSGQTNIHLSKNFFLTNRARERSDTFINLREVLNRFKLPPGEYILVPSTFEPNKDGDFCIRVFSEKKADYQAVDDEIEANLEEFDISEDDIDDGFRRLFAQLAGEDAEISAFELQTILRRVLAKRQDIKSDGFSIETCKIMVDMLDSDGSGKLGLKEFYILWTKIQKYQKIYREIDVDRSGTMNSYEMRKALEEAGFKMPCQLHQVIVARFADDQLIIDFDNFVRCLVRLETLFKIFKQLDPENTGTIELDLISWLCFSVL
T1 sequence (P04632 1-268 partner): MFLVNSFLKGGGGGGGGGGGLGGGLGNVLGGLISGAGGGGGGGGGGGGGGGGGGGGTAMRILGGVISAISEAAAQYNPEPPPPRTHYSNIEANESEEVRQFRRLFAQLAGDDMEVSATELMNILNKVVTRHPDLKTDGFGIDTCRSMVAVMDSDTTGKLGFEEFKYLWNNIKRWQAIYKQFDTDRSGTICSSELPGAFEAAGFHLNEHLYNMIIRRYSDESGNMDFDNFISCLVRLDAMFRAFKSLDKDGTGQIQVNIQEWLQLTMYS
Description: Biochemical inhibition of calpain 2, continuous fluorescence (FRET substrate) assay. The settings on record: mean, read-out: Human Calpain 2/NS1 IC50 (nM)_MEAN. The protocol: (§1) Calpain 1, 2, and 9 activity and inhibition thereof are assessed by means of a continuous fluorescence assay. The SensoLyte 520 Calpain substrate (Anaspec Inc) is optimized for detecting calpain activity. This substrate contains a novel internally quenched 5-FAM/QXL™ 520 FRET pair. Calpains 1, 2, and 9 cleave the FRET substrate into two separate fragments resulting in an increase of 5-FAM fluorescence that is proportional to calpain activity.
(§2) Assays are typically setup in black 384-well plates using automated liquid handling as follows. Calpain assay base buffer typically contains 50 mM Tris, pH˜7.5, 100 mM NaCl and 1 mM DTT. Inhibitors are serially diluted in DMSO and used to setup 2× mixtures with calpains in the aforementioned buffer. After incubation at ambient temperature (25C), the reaction is initiated by adding a 2× mix of the fluorescent peptide substrate and CaCl2) (required for in-situ calpain activation) in the same buffer. Reaction progress curve data are typically collected for 10 min using excitation/emission wavelengths of 490 nm/520 nm on SpectraMax i3× or the FLIPR-Tetra plate readers (Molecular Devices Inc). Reaction rates were calculated from progress curve slopes typically over 1-5 min. Dose response curves (rate vs. log inhibitor concentration) were typically fit to a 4-parameter logistic function to extract IC50 values.

The next assay concerns the target T2, Human Calpain 9/NS1 (Homo sapiens, UniProt O14815).
T2 sequence (O14815 1-690): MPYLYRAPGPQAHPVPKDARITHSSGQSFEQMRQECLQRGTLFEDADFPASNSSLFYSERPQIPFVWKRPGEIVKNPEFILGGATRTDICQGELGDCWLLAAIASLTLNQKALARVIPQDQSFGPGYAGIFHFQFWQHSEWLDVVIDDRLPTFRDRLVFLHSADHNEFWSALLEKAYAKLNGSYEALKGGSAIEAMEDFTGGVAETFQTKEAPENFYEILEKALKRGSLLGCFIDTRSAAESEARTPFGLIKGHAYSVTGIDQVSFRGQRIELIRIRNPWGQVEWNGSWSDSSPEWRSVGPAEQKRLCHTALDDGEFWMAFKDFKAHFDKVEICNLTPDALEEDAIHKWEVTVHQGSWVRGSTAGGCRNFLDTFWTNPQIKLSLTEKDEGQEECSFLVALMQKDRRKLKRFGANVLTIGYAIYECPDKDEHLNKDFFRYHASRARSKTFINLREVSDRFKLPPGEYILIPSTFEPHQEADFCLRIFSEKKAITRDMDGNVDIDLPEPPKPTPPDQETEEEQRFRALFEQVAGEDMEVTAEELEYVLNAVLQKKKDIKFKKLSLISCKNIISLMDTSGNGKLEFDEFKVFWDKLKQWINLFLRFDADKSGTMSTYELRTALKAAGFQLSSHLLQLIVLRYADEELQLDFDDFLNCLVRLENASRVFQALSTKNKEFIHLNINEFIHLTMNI
T2 sequence (P04632 1-268 partner): T1 sequence (P04632 1-268 partner)
Description: Biochemical inhibition of calpain 9, continuous fluorescence (FRET substrate) assay. The note with it: mean, read-out: Human Calpain 9/NS1 IC50 (nM)_MEAN. The protocol:
as §1, §2

The next assay deals with T3, Human Calpain 1/NS1 (Homo sapiens, UniProt P07384).
T3 sequence (P07384 1-714): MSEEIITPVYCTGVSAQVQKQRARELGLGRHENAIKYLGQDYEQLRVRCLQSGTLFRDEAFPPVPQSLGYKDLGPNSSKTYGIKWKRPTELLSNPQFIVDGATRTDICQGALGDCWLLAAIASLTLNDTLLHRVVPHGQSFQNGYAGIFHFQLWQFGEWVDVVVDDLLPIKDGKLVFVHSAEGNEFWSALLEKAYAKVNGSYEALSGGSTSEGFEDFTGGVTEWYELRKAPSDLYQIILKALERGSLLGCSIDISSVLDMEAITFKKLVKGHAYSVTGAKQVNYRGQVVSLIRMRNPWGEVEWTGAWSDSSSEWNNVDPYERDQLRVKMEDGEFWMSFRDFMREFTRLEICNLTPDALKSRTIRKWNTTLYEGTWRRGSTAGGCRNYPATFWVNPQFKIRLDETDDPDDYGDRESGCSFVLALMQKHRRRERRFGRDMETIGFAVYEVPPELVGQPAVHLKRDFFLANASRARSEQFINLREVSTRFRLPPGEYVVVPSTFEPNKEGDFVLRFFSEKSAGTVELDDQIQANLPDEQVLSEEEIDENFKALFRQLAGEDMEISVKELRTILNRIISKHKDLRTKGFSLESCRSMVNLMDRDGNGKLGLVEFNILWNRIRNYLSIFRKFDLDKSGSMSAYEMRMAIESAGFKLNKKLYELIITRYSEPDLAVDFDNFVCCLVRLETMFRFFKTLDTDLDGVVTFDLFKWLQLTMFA
T3 sequence (P04632 1-268 partner): T1 sequence (P04632 1-268 partner)
Briefly: Biochemical inhibition of calpain 1, continuous fluorescence (FRET substrate) assay. The settings on record: mean, read-out: Human Calpain 1/NS1 IC50 (nM)_MEAN. Here is the method: as §1, §2

For `CCNC(=O)C(=O)[C@@H]1CCCCCCCCCc2ccccc2C(=O)N1` [Compound 27, (S)—N-ethyl-2-oxo-2-(1-oxo-1,2,3,4,5,6,7,8,9,10,11,12-dodecahydrobenzo[c][1]azacyclotetradecin-3-yl)acetamide], the IC50 on Human Calpain 2/NS1, at Human Calpain 9/NS1 and at Human Calpain 1/NS1 was over 10000 nM throughout.

For the compound `O=C(NCCc1ccc(Cl)cc1)C(=O)[C@@H]1C/C=C\COCCOCc2ccccc2C(=O)N1` [Compound 77, (S,Z)—N-(4-chlorophenethyl)-2-oxo-2-(12-oxo-1,3,4,6,9,10,11,12-octahydrobenzo[f][1,4]dioxa[9]azacyclotetradecin-10-yl)acetamide], the IC50 on Human Calpain 2/NS1 is 3000 to 10000 nM; at Human Calpain 9/NS1 it was under 3000 nM; at Human Calpain 1/NS1, 3000 to 10000 nM.

In the case of `O=C[C@@H]1CCCCCOc2cccc(c2)-c2ccccc2C(=O)N1` [Compound 30, (S)-11-Oxo-3-oxa-10-aza-1(1,2),2(1,3)-dibenzenacycloundecaphane-9-carbaldehyde], the IC50 at Human Calpain 2/NS1, on Human Calpain 9/NS1 and on Human Calpain 1/NS1 was under 3000 nM throughout.

Take `CN(C)c1ccc(CNC(=O)C(=O)C2CCCCOCCOCc3ccccc3C(=O)N2)cc1` (stereo not drawn) [Compound 113, N-(4-(dimethylamino)benzyl)-2-oxo-2-(12-oxo-1,3,4,6,7,8,9,10,11,12-decahydrobenzo[f][1,4]dioxa[9]azacyclotetradecin-10-yl)acetamide]: the IC50 at Human Calpain 2/NS1 was over 10000 nM; at Human Calpain 9/NS1, under 3000 nM; at Human Calpain 1/NS1 it was over 10000 nM.

As for `NS(=O)(=O)c1ccc(CNC(=O)C(=O)C2CCCCOCCOCc3ccccc3C(=O)N2)cc1` (stereo not drawn) [Compound 84, 2-Oxo-2-(12-oxo-1,3,4,6,7,8,9,10,11,12-decahydrobenzo[f][1,4]dioxa[9]aza-cyclotetradecin-10-yl)-N-(4-sulfamoylbenzyl)acetamide], the IC50 at Human Calpain 2/NS1 is 3000 to 10000 nM; on Human Calpain 9/NS1 it was under 3000 nM; at Human Calpain 1/NS1 it was over 10000 nM.

For `NC(=O)C(=O)[C@@H]1CCCCCOc2ccnc(n2)-c2ccccc2C(=O)N1` [Compound 129, (S)-2-oxo-2-(3-oxo-11-oxa-4-aza-1(2,4)-pyrimidina-2(1,2)-benzena-cycloundecaphane-5-yl)acetamide], the IC50 on Human Calpain 2/NS1, at Human Calpain 9/NS1 and on Human Calpain 1/NS1 was under 3000 nM each time.

For the compound `CC(C)CCNC(=O)C(=O)C1CCCCOCCOCc2ccccc2C(=O)N1` (stereo not drawn) [Compound 90, N-isopentyl-2-oxo-2-(12-oxo-1,3,4,6,7,8,9,10,11,12-decahydrobenzo[f][1,4]dioxa[9]azacyclotetradecin-10-yl)acetamide], the IC50 is 3000 to 10000 nM at Human Calpain 2/NS1, under 3000 nM on Human Calpain 9/NS1 and over 10000 nM at Human Calpain 1/NS1.

Consider `O=C[C@@H]1C/C=C\COCCOCc2ccccc2C(=O)N1` [Compound 1, (S,Z)-12-Oxo-1,3,4,6,9,10,11,12-octahydrobenzo[f][1,4]dioxa[9]azacyclo-tetradecine-10-carbaldehyde], for which the IC50 is under 3000 nM at Human Calpain 2/NS1, under 3000 nM at Human Calpain 9/NS1 and over 10000 nM at Human Calpain 1/NS1.

As to `O=C[C@@H]1CC=CCCCOCc2ccccc2C(=O)N1` [Compound 41, (S)-11-Oxo-1,3,4,5,8,9,10,11-octahydrobenzo[c][1]oxa[6]azacyclotridecine-9-carbaldehyde], the IC50 at Human Calpain 2/NS1 is under 3000 nM; at Human Calpain 9/NS1, under 3000 nM; on Human Calpain 1/NS1, over 10000 nM.

Regarding `C/C1=C\C[C@@H](C=O)NC(=O)c2cc(C)nn2-c2cccc(c2)OCC1` [Compound 144, (S,E)-1^3,6-dimethyl-11-oxo-1^1H-3-oxa-10-aza-1(1,5)-pyrazola-2(1,3)-benzenacycloundecaphan-6-ene-9-carbaldehyde], the IC50 at Human Calpain 2/NS1, at Human Calpain 9/NS1 and at Human Calpain 1/NS1 was under 3000 nM each time.

Source of the values: patent US11292801B2, “Calpain modulators and therapeutic uses thereof” (Blade Therapeutics, Inc., priority 2016, dated 2022).
